In brackets after ≈: the same amount, converted by molar mass. Where two headings read alike, the source gives them in different places.
Columns and labels:
[1] = test system: AD/pABC3 (empty vector control, sensitive strain); test: microbe, parasite or virus in culture; conditions: Saccharomyces cerevisiae
[2] = test system: AD/CDR1 (AD1-8u- overexpressing wt Cdr1); test: MIC, modified CLSI M27-A3 broth microdilution; conditions: Saccharomyces cerevisiae, read-out: MIC (drug susceptibility)
[3] = test system: AD/CDR1-G521R; test: MIC, modified CLSI M27-A3 broth microdilution; conditions: for Fold-reduced resistance level (MIC) relative to AD/CDR1: G521R, 1 = no change; for MIC: Saccharomyces cerevisiae, read-out: MIC (drug susceptibility)
[4] = test system: AD/CDR1-M639I; test: MIC, modified CLSI M27-A3 broth microdilution; conditions: for Fold-reduced resistance level (MIC) relative to AD/CDR1: M639I, 1 = no change; for MIC: Saccharomyces cerevisiae, read-out: MIC (drug susceptibility)
[5] = test system: AD/CDR1-A713P; test: MIC, modified CLSI M27-A3 broth microdilution; conditions: for Fold-reduced resistance level (MIC) relative to AD/CDR1: A713P, 1 = no change; for MIC: Saccharomyces cerevisiae, read-out: MIC (drug susceptibility)
[6] = test system: AD/CDR1-T1355N; test: MIC, modified CLSI M27-A3 broth microdilution; conditions: for MIC: Saccharomyces cerevisiae, read-out: MIC (drug susceptibility); for Fold-reduced resistance level (MIC) relative to AD/CDR1: T1355N, 1 = no change
[7] = molecular target: wt Cdr1 ATPase activity (Candida albicans, UniProt Q5ANA3); test: biochemical; conditions: for Ki / IC50: CDR1 (wt); for Ki: Dixon plot, read-out: Ki (Cdr1 ATPase activity); for Vmax of ATPase activity in the presence of inhibitor: CDR1; for type of inhibition of ATPase activity (Lineweaver-Burk): wt Cdr1
[8] = molecular target: Cdr1-A713P (FLC transport) (Candida albicans, UniProt Q5ANA3, A713P); test: Agarose diffusion FLC chemosensitization assay; assay type: cell-based; conditions: 0.25× MICFLC, disc
Protocol: (§1) Compounds were tested for inhibition of FLC transport by yeast strains overexpressing Cdr1 or Cdr1 mutations.

[9] = molecular target: Cdr1-G521R (FLC transport) (Candida albicans, UniProt Q5ANA3, G521R); test: Agarose diffusion FLC chemosensitization assay; assay type: cell-based; conditions: 0.25× MICFLC, disc
Protocol: as §1

[10] = molecular target: Cdr1-M639I (FLC transport) (Candida albicans, UniProt Q5ANA3, M639I); test: Agarose diffusion FLC chemosensitization assay; assay type: cell-based; conditions: 0.25× MICFLC, disc
Protocol: as §1

[11] = molecular target: Cdr1-T1355N (FLC transport) (Candida albicans, UniProt Q5ANA3, T1355N); test: Agarose diffusion FLC chemosensitization assay; assay type: cell-based; conditions: 0.25× MICFLC, disc
Protocol: as §1

[12] = test system: AD/pABC3 (empty vector control, sensitive strain); conditions: cited from earlier work
[13] = molecular target: wt Cdr1 (FLC efflux of AD/CDR1 cells) (Candida albicans, UniProt Q5ANA3); conditions: for lowest inhibitor concentration necessary to achieve the lowest MICFLC / lowest MICFLC in the presence of inhibitor: CDR1; for lowest MICFLC in the presence of inhibitor: FLC 5 to 640 mg/L tested
[14] = read-out: MIC (drug susceptibility), strain AD/pABC3
[15] = read-out: MIC (drug susceptibility)
[16] = from Fig. 4, read-out: IC50 for inhibition of Cdr1 ATPase activity
[17] = > = only partial inhibition, none = no reduction at highest concentration, read-out: Estimated IC50 for substrate inhibition of the ATPase activity

Sequence of wt Cdr1 (FLC efflux of AD/CDR1 cells) (Q5ANA3 whole entry): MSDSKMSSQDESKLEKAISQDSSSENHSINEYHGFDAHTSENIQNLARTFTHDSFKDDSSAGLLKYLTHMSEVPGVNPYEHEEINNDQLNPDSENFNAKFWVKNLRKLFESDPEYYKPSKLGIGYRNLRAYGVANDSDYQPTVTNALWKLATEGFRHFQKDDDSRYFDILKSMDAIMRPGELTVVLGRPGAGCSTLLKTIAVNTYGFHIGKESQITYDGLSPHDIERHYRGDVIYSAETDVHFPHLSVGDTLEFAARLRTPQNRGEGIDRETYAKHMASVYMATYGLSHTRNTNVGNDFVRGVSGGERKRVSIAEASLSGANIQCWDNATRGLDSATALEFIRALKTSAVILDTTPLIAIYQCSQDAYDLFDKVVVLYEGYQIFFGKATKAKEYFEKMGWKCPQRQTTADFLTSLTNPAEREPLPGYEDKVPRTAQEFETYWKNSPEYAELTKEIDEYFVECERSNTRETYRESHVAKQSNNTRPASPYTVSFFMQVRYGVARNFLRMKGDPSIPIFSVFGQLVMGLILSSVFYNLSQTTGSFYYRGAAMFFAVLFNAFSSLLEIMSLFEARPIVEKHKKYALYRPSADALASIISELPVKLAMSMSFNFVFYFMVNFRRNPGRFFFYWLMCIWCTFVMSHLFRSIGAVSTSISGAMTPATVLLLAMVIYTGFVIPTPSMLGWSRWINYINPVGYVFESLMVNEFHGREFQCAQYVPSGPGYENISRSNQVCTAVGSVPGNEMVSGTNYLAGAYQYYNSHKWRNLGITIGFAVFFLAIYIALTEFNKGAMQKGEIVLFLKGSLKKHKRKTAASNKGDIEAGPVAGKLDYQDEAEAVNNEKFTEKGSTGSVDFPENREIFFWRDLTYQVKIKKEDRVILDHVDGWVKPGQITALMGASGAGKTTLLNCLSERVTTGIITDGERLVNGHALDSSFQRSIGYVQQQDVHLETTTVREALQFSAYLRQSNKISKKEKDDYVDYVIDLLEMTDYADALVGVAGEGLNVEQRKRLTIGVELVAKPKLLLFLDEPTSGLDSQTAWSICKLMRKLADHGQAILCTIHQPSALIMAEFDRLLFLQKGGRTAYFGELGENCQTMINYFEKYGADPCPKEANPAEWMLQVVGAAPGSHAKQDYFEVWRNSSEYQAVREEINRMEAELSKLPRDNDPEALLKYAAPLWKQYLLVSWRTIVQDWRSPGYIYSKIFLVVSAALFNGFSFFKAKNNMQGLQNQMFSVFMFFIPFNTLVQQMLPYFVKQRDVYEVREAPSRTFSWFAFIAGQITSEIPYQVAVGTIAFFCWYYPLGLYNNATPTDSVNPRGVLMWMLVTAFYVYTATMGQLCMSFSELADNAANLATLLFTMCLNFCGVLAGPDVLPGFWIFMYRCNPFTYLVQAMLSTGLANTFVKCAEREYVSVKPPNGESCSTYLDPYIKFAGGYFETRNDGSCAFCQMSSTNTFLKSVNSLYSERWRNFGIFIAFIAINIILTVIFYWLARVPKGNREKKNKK
Sequence of wt Cdr1 ATPase activity (Q5ANA3 whole entry, the tested form may be a part): as the sequence (Q5ANA3 whole entry) above
Sequence of Cdr1-A713P (FLC transport) (Q5ANA3 whole entry A713P, the tested form may be a part): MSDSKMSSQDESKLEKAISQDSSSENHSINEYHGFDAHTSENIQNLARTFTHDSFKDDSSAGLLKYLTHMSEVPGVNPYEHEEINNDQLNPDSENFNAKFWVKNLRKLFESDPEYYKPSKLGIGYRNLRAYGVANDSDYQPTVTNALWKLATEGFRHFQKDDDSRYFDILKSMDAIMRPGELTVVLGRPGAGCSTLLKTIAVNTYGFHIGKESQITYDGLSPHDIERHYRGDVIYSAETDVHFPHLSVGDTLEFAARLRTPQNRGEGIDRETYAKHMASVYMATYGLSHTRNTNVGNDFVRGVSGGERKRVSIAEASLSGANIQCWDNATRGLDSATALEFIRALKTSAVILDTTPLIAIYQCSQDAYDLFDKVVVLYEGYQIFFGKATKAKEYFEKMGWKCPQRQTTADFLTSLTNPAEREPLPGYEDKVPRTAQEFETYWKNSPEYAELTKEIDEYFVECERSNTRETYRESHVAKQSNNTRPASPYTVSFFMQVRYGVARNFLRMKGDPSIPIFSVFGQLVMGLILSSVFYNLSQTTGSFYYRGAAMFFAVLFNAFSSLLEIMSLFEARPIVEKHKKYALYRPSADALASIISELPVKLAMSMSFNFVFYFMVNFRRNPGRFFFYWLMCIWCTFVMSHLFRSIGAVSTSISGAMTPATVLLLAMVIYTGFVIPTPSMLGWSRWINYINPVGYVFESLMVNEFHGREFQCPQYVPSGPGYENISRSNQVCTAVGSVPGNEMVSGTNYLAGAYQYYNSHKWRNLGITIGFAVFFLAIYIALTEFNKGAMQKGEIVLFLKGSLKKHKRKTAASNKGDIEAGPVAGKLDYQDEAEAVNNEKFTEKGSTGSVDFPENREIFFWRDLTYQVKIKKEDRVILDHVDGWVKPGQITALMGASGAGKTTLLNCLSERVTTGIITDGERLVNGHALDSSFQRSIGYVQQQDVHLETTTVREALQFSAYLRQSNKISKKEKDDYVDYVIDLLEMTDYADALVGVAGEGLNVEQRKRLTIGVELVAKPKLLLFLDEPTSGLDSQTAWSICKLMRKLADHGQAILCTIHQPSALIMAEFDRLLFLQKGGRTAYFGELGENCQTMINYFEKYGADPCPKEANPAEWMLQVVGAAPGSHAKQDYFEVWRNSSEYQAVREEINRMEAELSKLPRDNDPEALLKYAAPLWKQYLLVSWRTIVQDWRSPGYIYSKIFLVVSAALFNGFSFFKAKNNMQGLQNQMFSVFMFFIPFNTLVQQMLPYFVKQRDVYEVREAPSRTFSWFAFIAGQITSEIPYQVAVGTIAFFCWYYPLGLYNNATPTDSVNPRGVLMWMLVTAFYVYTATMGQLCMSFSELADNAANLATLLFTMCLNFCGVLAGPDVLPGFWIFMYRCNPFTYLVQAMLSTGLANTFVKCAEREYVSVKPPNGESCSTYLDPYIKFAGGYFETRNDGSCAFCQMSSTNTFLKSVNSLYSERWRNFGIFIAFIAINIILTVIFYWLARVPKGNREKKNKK

| Compound | MIC [1, 14] [µg/mL] | MIC [2] [µg/mL] | Fold-reduced resistance level (MIC) relative to AD/CDR1 [3] [fold] | MIC [3] [µg/mL] | Fold-reduced resistance level (MIC) relative to AD/CDR1 [4] [fold] | MIC [4] [µg/mL] | Fold-reduced resistance level (MIC) relative to AD/CDR1 [5] [fold] | MIC [5] [µg/mL] | MIC [6] [µg/mL] | Fold-reduced resistance level (MIC) relative to AD/CDR1 [6] [fold] | MIC [1, 15] [µg/mL] | IC50 [7, 17] [µM] | further results |
| --- | --- | --- | --- | --- | --- | --- | --- | --- | --- | --- | --- | --- | --- |
| C/C=C/C/C=C/CCC(=O)[C@H]1O[C@H]1C(N)=O [CER, cerulenin] | 0.25 (≈ 1.12 µM) | 8 (≈ 35.8 µM) | 2 | 4 (≈ 17.9 µM) | 2 | 4 (≈ 17.9 µM) | 2 | 4 (≈ 17.9 µM) | 4 (≈ 17.9 µM) | 2 | – | – | – |
| C[C@@H]1C[C@@H]([C@H](O)CC2CC(=O)NC(=O)C2)C(=O)[C@@H](C)C1 [CHX, cycloheximide] | – | 2 (≈ 7.11 µM) | 2 | 1 (≈ 3.55 µM) | 2 | 1 (≈ 3.55 µM) | 2 | 1 (≈ 3.55 µM) | 2 (≈ 7.11 µM) | 1 | 0.016 (≈ 0.0569 µM) | – | – |
| Clc1ccccc1C(c1ccccc1)(c1ccccc1)n1ccnc1 [CLT, clotrimazole] | – | 8 (≈ 23.2 µM) | – | – | – | 8 (≈ 23.2 µM) | – | 1 (≈ 2.9 µM) | 4 (≈ 11.6 µM) | – | 0.002 (≈ 0.0058 µM) | – | – |
| C=CC[C@@H]1/C=C(\C)C[C@H](C)C[C@H](OC)[C@H]2O[C@@](O)(C(=O)C(=O)N3CCCC[C@H]3C(=O)O[C@H](/C(C)=C/[C@@H]3CC[C@@H](O)[C@H](OC)C3)[C@H](C)[C@@H](O)CC1=O)[C@H](C)C[C@@H]2OC [FK506] | – | – | – | – | – | – | – | – | – | – | – | – | Ki [7]: 1.21 ± 0.24 µM; IC50 [7, 16]: 1.25 µM; Vmax of ATPase activity in the presence of inhibitor ([7]; [I] 0.5 μM): 233 nmol/min/mg; Vmax of ATPase activity in the presence of inhibitor ([7]; [I] 1.0 μM): 164 nmol/min/mg; type of inhibition of ATPase activity (Lineweaver-Burk) [7]: noncompetitive inhibition; susceptibility of FLC transport to inhibitor on agar [8]: resistant; susceptibility of FLC transport to inhibitor on agar [9]: resistant; susceptibility of FLC transport to inhibitor on agar [10]: remained susceptible; susceptibility of FLC transport to inhibitor on agar [11]: remained susceptible; synergy with the Cdr1 substrates FLC and R6G [12]: no synergy; FICI (inhibitor/FLC combination) [13]: <0.26; IC50 [13]: 2.5 µM; lowest inhibitor concentration necessary to achieve the lowest MICFLC [13]: 40 µM; lowest MICFLC in the presence of inhibitor [13]: 5 mg/L |
| CCC(C)n1ncn(-c2ccc(N3CCN(c4ccc(OCC5COC(Cn6cncn6)(c6ccc(Cl)cc6Cl)O5)cc4)CC3)cc2)c1=O (stereo not shown) [ITC, itraconazole] | 0.031 (≈ 0.0439 µM) | 32 (≈ 45.3 µM) | 128 | 0.25 (≈ 0.354 µM) | 2 | 16 (≈ 22.7 µM) | – | 1 (≈ 1.42 µM) | 16 (≈ 22.7 µM) | 2 | – | > 32 | – |
| CC(=O)N1CCN(c2ccc(OCC3COC(Cn4ccnc4)(c4ccc(Cl)cc4Cl)O3)cc2)CC1 (stereo not shown) [KTC, ketoconazole] | – | 8 (≈ 15.1 µM) | – | 0.125 (≈ 0.235 µM) | 2 | 4 (≈ 7.53 µM) | 8 | 1 (≈ 1.88 µM) | 4 (≈ 7.53 µM) | 2 | 0.008 (≈ 0.0151 µM) | 13 | – |
| C/C1=C/C(=O)O[C@@H]2C[C@@H](CC[C@H](C)/C=C\C=C\CC1)O[C@@](O)([C@@H]1CSC(=O)N1)C2 [LaA, latrunculin A] | – | 8 (≈ 19 µM) | – | 0.125 (≈ 0.297 µM) | 1 | 8 (≈ 19 µM) | 4 | 2 (≈ 4.74 µM) | 2 (≈ 4.74 µM) | 4 | 0.016 (≈ 0.038 µM) | – | – |
| Clc1ccc(COC(Cn2ccnc2)c2ccc(Cl)cc2Cl)c(Cl)c1 (stereo not shown) [MCZ, miconazole] | – | 8 (≈ 19.2 µM) | 16 | 0.5 (≈ 1.2 µM) | 4 | 2 (≈ 4.81 µM) | 8 | 1 (≈ 2.4 µM) | 2 (≈ 4.81 µM) | 4 | 0.008 (≈ 0.0192 µM) | – | – |
| CC[C@@]1([C@@H]2O[C@@H]([C@H]3O[C@@](O)(CO)[C@H](C)C[C@@H]3C)C[C@@H]2C)CC[C@H]([C@]2(C)CC[C@]3(C[C@H](O)[C@@H](C)[C@@H]([C@@H](C)[C@@H](OC)[C@H](C)C(=O)O)O3)O2)O1 [MON, monensin] | 0.031 (≈ 0.0462 µM) | 128 (≈ 191 µM) | 256 | 0.5 (≈ 0.745 µM) | 1 | 128 (≈ 191 µM) | – | 128 (≈ 191 µM) | 128 (≈ 191 µM) | 1 | – | > 256 | – |
| CO[C@@H]1C[C@@H](C[C@H]2CC[C@H](C)[C@H]([C@@H](C)C(=O)O)O2)O[C@]2(O[C@](C)([C@H]3CC[C@@](C)([C@@H]4O[C@@H]([C@H]5O[C@@](O)(CO)[C@H](C)C[C@@H]5C)C[C@@H]4C)O3)C[C@H]2C)[C@@H]1C [NIG, nigericin] | 0.063 (≈ 0.0869 µM) | 128 (≈ 177 µM) | – | 0.25 (≈ 0.345 µM) | 1 | 128 (≈ 177 µM) | 16 | 8 (≈ 11 µM) | 128 (≈ 177 µM) | 1 | – | > 256 | – |
| CC[C@H]1/C=C/C=C/C[C@@H](C)[C@H](O)[C@@](C)(O)C(=O)[C@@H](C)[C@H](O)[C@@H](C)C(=O)[C@@H](C)[C@H](O)[C@@H](C)/C=C/C(=O)O[C@@H]2[C@H](C)[C@H](CC1)O[C@]1(CC[C@H](C)[C@H](C[C@@H](C)O)O1)[C@H]2C [Oligomycin, oligomycin] | – | – | – | – | – | – | – | – | – | – | – | – | Ki [7]: 0.54 ± 0.01 µM; Vmax of ATPase activity in the presence of inhibitor ([7]; [I] 0.5 μM): 185 nmol/min/mg; Vmax of ATPase activity in the presence of inhibitor ([7]; [I] 1.0 μM): 132 nmol/min/mg; type of inhibition of ATPase activity (Lineweaver-Burk) [7]: noncompetitive inhibition |
| CC[C@@H]([C@H](C)O)n1ncn(-c2ccc(N3CCN(c4ccc(OC[C@@H]5CO[C@@](Cn6cncn6)(c6ccc(F)cc6F)C5)cc4)CC3)cc2)c1=O [PSC, posaconazole] | 0.016 (≈ 0.0228 µM) | 32 (≈ 45.7 µM) | – | 0.063 (≈ 0.0899 µM) | 16 | 2 (≈ 2.85 µM) | – | 1 (≈ 1.43 µM) | 2 (≈ 2.85 µM) | 16 | – | – | – |
| CC/N=c1\cc2oc3cc(NCC)c(C)cc3c(-c3ccccc3C(=O)OCC)c-2cc1C [R6G, rhodamine 6G] | 0.5 (≈ 1.13 µM) | 32 (≈ 72.3 µM) | 8 | 4 (≈ 9.04 µM) | 2 | 16 (≈ 36.2 µM) | – | 32 (≈ 72.3 µM) | 32 (≈ 72.3 µM) | 1 | – | 32 | – |
| C[C@@H](c1ncncc1F)[C@](O)(Cn1cncn1)c1ccc(F)cc1F [VRC, voriconazole] | 0.016 (≈ 0.0458 µM) | 8 (≈ 22.9 µM) | 8 | 1 (≈ 2.86 µM) | 1 | 8 (≈ 22.9 µM) | 2 | 4 (≈ 11.5 µM) | 8 (≈ 22.9 µM) | 1 | – | – | – |
| [O]=[V]([O-])([O-])[O-] [Vanadate, vanadate] | – | – | – | – | – | – | – | – | – | – | – | – | Ki [7]: 0.96 ± 0.08 µM; IC50 [7, 16]: 1.2 µM; Vmax of ATPase activity in the presence of inhibitor ([7]; [I] 0.5 μM): 161 nmol/min/mg; Vmax of ATPase activity in the presence of inhibitor ([7]; [I] 2.0 μM): 90 nmol/min/mg; type of inhibition of ATPase activity (Lineweaver-Burk) [7]: uncompetitive inhibitor |
| beauvericin | – | – | – | – | – | – | – | – | – | – | – | – | Vmax of ATPase activity in the presence of inhibitor ([7]; [I] 0.2 μM): 132 nmol/min/mg; Vmax of ATPase activity in the presence of inhibitor ([7]; [I] 0.5 μM): 63 nmol/min/mg; type of inhibition of ATPase activity (Lineweaver-Burk) [7]: noncompetitive inhibition; susceptibility of FLC transport to inhibitor on agar [8]: remained susceptible; susceptibility of FLC transport to inhibitor on agar [9]: resistant; susceptibility of FLC transport to inhibitor on agar [11]: slightly more resistant; synergy with the Cdr1 substrates FLC and R6G [12]: no synergy; FICI (inhibitor/FLC combination) [13]: <0.13; lowest inhibitor concentration necessary to achieve the lowest MICFLC [13]: 1.25 µM; lowest MICFLC in the presence of inhibitor [13]: 5 mg/L |

— PMC8765293, “Inhibitor-Resistant Mutants Give Important Insights into Candida albicans ABC Transporter Cdr1 Substrate Specificity and Help Elucidate Efflux Pump Inhibition” (Antimicrobial Agents and Chemotherapy, 2022)
